According to US6492399B1, “Pharmaceutical compositions and methods for use” (Targacept, Inc., priority 1998, dated 2002):

Assays:
Assay type in all cases: biochemical
Rat brain synaptosomes = test: Neurotransmitter release from brain synaptosomes; conditions: 10 μM ligand; percentage of release with 10 μM (S)-(-)-nicotine or 300 μM TMA
Experimental: Neurotransmitter Release From Brain Synaptosomes
Neurotransmitter release was measured using techniques similar to those previously published (Bencherif M, et al . . . JPET279: 1413-1421, 1996).
Rat brain synaptosomes were prepared as follows: Female Sprague Dawley rats (100-200 g) were killed by decapitation after anesthesia with 70% CO2. Brains are dissected, and hippocampus, striatum, and thalamus isolated, and homogenized in 0.32 M sucrose containing 5 mM HEPES pH 7.4 using a glass/glass homogenizer. The tissue was then centrifuged for 1000×g for 10 minutes and the pellet discarded. The supernatant was centrifuged at 12000×g for 20 minutes. The resultant pellet was re-suspended in perfusion buffer (128 mM NaCl, 1.2 mM KH2PO4, 2.4 mM KCl, 3.2 mM CaCl2, 1.2 mM MgSO4, 25 mM HEPES, 1 mM Ascorbic acid, 0.01 mM pargyline HCl and 10 mM glucose pH 7.4) and centrifuged for 15 minutes at 25000×g. The final pellet was resuspended in perfusion buffer and placed in a water bath (37° C.) for 10 minutes. Radiolabeled neurotransmitter is added (30 μL ^3H DA, 20 μL ^3H NE, 10 μL ^3H glutamate) to achieve a final concentration of 100 nM, vortexed and placed in a water bath for additional 10 minutes. Tissue-loaded filters is placed onto 11-mm diameter Gelman A/E filters on an open-air support. After a 10-minute wash period, fractions are collected to establish the basal release and agonist applied in the perfusion stream. Further fractions were collected after agonist application to re-establish the baseline. The perfusate was collected directly into scintillation vials and released radioactivity was quantified using conventional liquid scintillation techniques. Release of neurotransmitter was determined in the presence of 10μM of various ligands and was expressed as a percentage of release obtained with a concentration of 10 μM (S)-(−)-nicotine or 300 μM TMA resulting in maximal effects.

rubidium ion flux = test: Determination of rubidium ion release (rubidium ion flux assay); conditions: rubidium ion released relative to 300 uM tetramethylammonium ion
Experimental: Determination of Rubidium Ion Release
Rubidium release was measured using the techniques described in Bencherif et al., JPET, 279: 1413-1421 (1996). Reported EC50 values are expressed in nM, and Ema, values represent the amount of rubidium ion released relative to 300 uM tetramethylammonium ion, on a percentage basis.

dopamine release = test: Determination of dopamine release; conditions: amount released relative to (S)-(-)-nicotine
Experimental: Determination of Dopamine Release
Dopamine release was measured using the techniques described in U.S. Pat. No. 5,597,919 to Dull et al. Release is expressed as a percentage of release obtained with a concentration of (S)-(−)-nicotine resulting in maximal effects. Reported EC50 values are expressed in nM, and Emax values represent the amount released relative to (S)-(−)-nicotine on a percentage basis.

| SMILES | neurotransmitter release Emax (Rat brain synaptosomes) [%] | Emax in the rubidium ion flux assay (rubidium ion flux) [%] | Emax for dopamine release (dopamine release) [%] |
| --- | --- | --- | --- |
| CNC(C)CC=Cc1cncc(C(F)(F)F)c1 (centres unmarked) [Sample No. 10, (4E)-N-methyl-5-(3-(5-trifluoromethylpyridin)yl)-4-penten-2-amine] | 50 | 0 |  |
| CNCC/C=C/c1cncc(OCC(C)C)c1 [Sample No. 6, (3E)-N-methyl-4-(3-(5-isobutoxypyridin)yl)-3-buten-1-amine hemigalactarate] |  | 15 | 25 |
| CNCC/C=C/c1cncc(C(=O)NCc2ccccc2)c1 [Sample No. 2, (3E)-N-methyl-N-[3-(5-(N-benzylcarboxamido)pyridin)yl]-3-buten-1-amine] |  |  | 12 |
| CN[C@@H](C)C/C=C/c1cc(OC(C)C)c[n+]([O-])c1 [Sample No. 5] | 19 |  |  |
| CCSc1cncc(/C=C/CCNC)c1 [Sample No. 9, (3 E)-N-methyl-4-(3-(5-ethylthiopyridin)yl)-3-buten-1-amine hemigalactarate] |  | 40 | 39 |
| CNC(C)CC=Cc1cncc(O)c1 (centres unmarked) [Sample No. 13, (4E)-N-methyl-5-(3-(5-hydroxypyridin)yl)-4-penten-2-amine sesquioxalate] | 80 |  |  |
| CNC(C)CC=Cc1ccc[n+]([O-])c1 (centres unmarked) [Sample No. 8, (4E)-N-methyl-5-(3-(1-oxopyridin)yl)-4-penten-2-amine] | 9 |  |  |
| CC(N)CC=Cc1cncc(OC(C)C)c1 (centres unmarked) [Sample No. 12, (4E)-5-(3-(5-isopropoxypyridin)yl)-4-penten-2-amine hemigalactarate] | 32 |  |  |
